Source: ChEMBL document CHEMBL1159025, “A Novel Hydrolyzable Tannin and Related Compounds Isolated from the Leaf Surface of Chrysolepis sempervirens” (1992)
Activity calls are given as the source filed them. The rule behind the calls is not given here.

What was measured:
Staphylococcus aureus = assay: Antimicrobial activity against Staphylococcus aureus ATCC 6538 at 1000 ug/ml by macro-dilution broth culture method; assay type: functional, organism-based
Candida albicans = assay: Antimicrobial activity against Candida albicans ATCC 18804 at 1000 ug/ml by macro-dilution broth culture method; assay type: functional, organism-based
Pseudomonas aeruginosa = assay: Antimicrobial activity against Pseudomonas aeruginosa ATCC 25619 at 1000 ug/ml by macro-dilution broth culture method; assay type: functional, organism-based
HeLa = assay: Cytotoxicity against human HeLa cells at 100 ug/ml; assay type: functional

Compound | Activity (Staphylococcus aureus) | Activity (Candida albicans) | Activity (Pseudomonas aeruginosa) | Activity (HeLa) [%]
O=C1OC[C@H]2OC(=O)c3cc(O)c(O)c(O)c3-c3c(O)c(O)c(O)c4c3C(=O)O[C@H]([C@H]3OC(=O)c5c-4c(O)c(O)c(O)c5[C@H]3O)[C@@H]2OC(=O)c2cc(O)c(O)c(O)c2-c2c1cc(O)c(O)c2O [CASTALAGIN] | inactive | inactive | inactive | 70
O=C1OC[C@H]2OC(=O)c3cc(O)c(O)c(O)c3-c3c(O)c(O)c(O)c4c3C(=O)O[C@H]([C@@H](O)[C@@H](O)c3c(O)c(O)c(O)c-4c3C(=O)O)[C@@H]2OC(=O)c2cc(O)c(O)c(O)c2-c2c1cc(O)c(O)c2O [CHINQUAPINIC ACID] | inactive | inactive | inactive | 70
O=C1OCC2OC(=O)c3cc(O)c(O)c(O)c3-c3c(O)c(O)c(O)c4c3C(=O)OC(C2OC(=O)c2cc(O)c(O)c(O)c2-c2c1cc(O)c(O)c2O)C1OC(=O)c2c-4c(O)c(O)c(O)c2C1O (configuration not stated) [VESCALAGIN] | inactive | inactive | inactive | 70
